Laboratory results taken from ChEMBL document CHEMBL1129049, “Structure-activity analysis of anandamide analogs: relationship to a cannabinoid pharmacophore” (1996).

Tests used:
Mus musculus [1] = species on record: Mus musculus; assay: Effective dose required to increase tail-flick latency in mice; format: functional
Mus musculus [2] = species on record: Mus musculus; assay: Effective dose required to inhibit spontaneous locomotor activity in mice; format: functional

Row | SMILES | ED50 (Mus musculus [1]) [µmol/kg] | ED50 (Mus musculus [2]) [µmol/kg]
1 | CCCCC/C=C\C/C=C\C/C=C\C/C=C\CCCC(=O)NCCF | 190 | 57.2
2 | CCCCC/C=C\C/C=C\C/C=C\C/C=C\CCCC(=O)NCCCO | 61.4 | 43.7
3 | CCCCC/C=C\C/C=C\C/C=C\C/C=C\CCCC(=O)NCCOc1ccccc1 | 74.1 | 23
4 | CCCCC/C=C\C/C=C\C/C=C\C/C=C\CCC(C)(C)C(=O)NCCO | 49.6 | 30.5
5 | CCCCC/C=C\C/C=C\C/C=C\C/C=C\CCCC(=O)NCCCCCO | 72.9 | 49.5
6 | CCCCC/C=C\C/C=C\C/C=C\C/C=C\CCCC(=O)NCCOC |  | 186
7 | CCCCC/C=C\C/C=C\C/C=C\C/C=C\CCCC(=O)NCCO [ANANDAMIDE] | 17.4 | 50.3
8 | CCCCC/C=C\C/C=C\C/C=C\C/C=C\CCCC(=O)N1CCOCC1 | 25.4 | 20.7
